Reference: patent US8829014B2, “Thiazole and thiophene analogues, and their use in treating autoimmune diseases and cancers” (Board of Supervisors of Louisiana State University and …, priority 2006, dated 2014)
Marks after values point to notes of the source that are not given here.

What was measured:
Format in all cases: cell-based
eIF4E = eIF4E inhibitor screen: luciferase under FGF 5′UTR in FaDu cells (highly cap-dependent translation); conditions: for inhibition of highly cap-dependent translation (summary statement): summary in the disclosure
From the text: Since highly cap-dependent translation is associated with synthesis of proteins involved in cancer, a compound that inhibits this pathway may be used as an anti-cancer agent. The assay was developed by cloning the highly structured 5′ UTR of FGF, which requires high levels of eIF4E before protein synthesis can initiate, into the proper orientation of the reporter gene luciferase, and then stably transfecting the modified luciferase gene into the cell line FaDu that is known to have high levels of eIF4E. The activity of luciferase is then monitored in the presence and absence of the tested compound.
Generation of Stable Cell Lines: The pMS110 plasmid (pGL3-control plasmid from Promega which contains a neo selectable marker) was used to generate pMS110-5′UTR by cloning the 5′ UTR of FGF just upstream of the luciferase AUG start codon. FaDu cells, a head and neck cancer cell line, were transfected using Lipofectamine2000 (Invitrogen). Twenty-four hours after transfection G418 was added at 500 μg/ml. Cells were maintained in G418 for 14 days, and then individual colonies were transferred to a 96-well plate for propagation. Individual clones were analyzed for luciferase expression by plating 10^4 cells per well in a 96-well plate for 24 hours before lysing the cells and analyzing for luciferase activity in a Victor III (Perkin Elmer) or Lucy2 (Rosys Anthos). FaDu9000 and FaDuUTR were the clones that expressed the highest level of active luciferase following transfection of pMS110 and pMS110-5′UTR, respectively.
Analysis of Rapamycin Responsiveness: Cells of FaDu9000 and FaDuUTR were plated at 1×10^4 cells/well in a 96-well dish. Twenty-four hours after plating, 0.1% DMSO (vehicle control) or 10 nM rapamycin were added to each well, and the cells were maintained for an additional 24 or 48 hours. The cells were then lysed and luciferase activity was determined using BriteGlo (Promega) as per manufacturer's instruction and recorded using the Victor III. Following subtraction of background activity, the mean value of quadruplicate samples for a given experiment was determined, and the treated cells were normalized to the control. At least four separate experiments were conducted, and the mean and standard error were calculated. To determine if rapamycin affected cell viability, an MTS assay (Cell Proliferation One Solution, Promega) was carried out on each population at 48 hours in two separate experiments.
The FaDu cell line stably transfected with FGF 5′UTR was used to screen thirty-nine representative compounds, each at a concentration of 1.0 μM. Additional cells were treated with vehicle, 0.3% DMSO. Cells were plated for twenty-four hours in a 96-well plate. Each compound was then added to triplicate wells, and the cells were incubated for forty-eight hours before measuring luciferase activity as above. The mean luciferase activity was measured using Promega's Brite-Glo kit, and the mean for each sample was normalized to DMSO. The experiment was then repeated, and the average and standard deviation of the two experiments were determined (FIG. 8).

[1] = tested on: vascular smooth muscle cells (VSMC); assay: LDH release cytotoxicity in VSMC; conditions: rat, 48 h, 10 μM
Description: Additional compounds have also been tested for their ability to inhibit both TNF-α-induced NF-κB—expression and PMA-induced AP-1 expression. In both tests, the compound was added for 1 h, then the appropriate inducer was added, and luciferase activity was monitored 24 h later. Values were then normalized to the vehicle control, DMSO. Following the initial luciferase screens, studies were conducted to assess the cytotoxicity of the compounds in normal cells such as VSMC, HUVEC, or HPT cells. Human umbilical vein endothelial cells (HUVEC) represent the normal endothelium, vascular smooth muscle cells (VSMC) were represented by cells from the adult rat aorta, and human proximal tubule (HPT) cells represent the normal proximal tubule in vivo. These cells were grown to near confluency in multi-well plates, and were then treated for 48 h with either vehicle (0.1% DMSO) or 10 μM of each drug candidate. Following treatment, the media from the VSMC and HUVEC incubations were removed, and the amount of lactate dehydrogenase (LDH) released into the medium was determined with a commercial kit. LDH is normally confined to the cytosol, and its release represents “leakiness” of the plasma membrane. LDH activity was expressed as % increase over vehicle-treated cells. In another assay of viability, the treated VSMC and HUVEC were removed by trypsinization and treated with trypan blue, a dye that is taken up only by dead cells. The number of both live and dead cells was counted using an automated cell viability analyzer. The % decrease in numbers of viable cells was determined. Toxicity in the treated HPT cells was determined by the ethidium homodimer (EthHD) uptake assay. EthHD is a fluorescent dye that is excluded from live cells, but is taken up by cells that have lost permeability barriers. Inside the cell, EthHD produces a strong fluorescent signal, which is proportional to the number of dead cells. Results were expressed as a % increase in cell death over vehicle-treated cells. The lead compounds were also tested in two pairs of cell lines from either the skin or prostate, one tumorigenic and one non-tumorigenic, to test for any differences in toxicity or heightened sensitivity in the tumorigenic lines. The cells were treated for 48 h with vehicle (0.1% DMSO) or 10 μM of each drug candidate. Following treatment, the viability of the cells was determined by the MTT assay. In this assay, the MTT dye is converted only in viable cells by intracellular enzymes to a colorimetric product that is quantitated by a microplate reader.
For the results in Table 13, cells were grown to near confluency in multi-well plates, then treated for 48 h with either vehicle (0.1% DMSO) or 10 μM of each drug candidate. Following treatment, the media from the VSMC and HUVEC incubations were removed, and the amount of lactate dehydrogenase (LDH) released into the medium was determined with a commercial kit and expressed as a % increase over vehicle-treated cells. HPT toxicity was determined by the ethidium homodimer (EthHD) uptake assay. Inside the cell, EthHD produces a strong fluorescent signal, which is proportional to the amount of cell death, expressed as a % increase in cell death over vehicle-treated cells. The lead compounds were also tested in two pairs of cell lines from the skin or prostate, one tumorigenic and one non-tumorigenic, to test for differing toxicity or heightened sensitivity in the tumorigenic lines. The cells were treated for 48 h with vehicle (0.1% DMSO) or 10 μM of each drug candidate, and the viability of the cells was determined by the MTT assay, expressed as a % decrease in viability compared to vehicle-treated cells. The in vivo inflammation model measured the % inhibition of rat paw edema induced by carageenan injection.

FaDu cells = tested on: FaDu cells
From the text: […]. Values greater than 1.0 indicate activation, and values less than 1.0 indicate inhibition.) The compounds that inhibited luciferase translation might, potentially, act by generally inhibiting translation, by reducing cell numbers through inhibition of growth or by cell toxicity, or specifically by inhibiting highly cap-dependent translation. To analyze any general effects on cell viability, fourteen compounds were selected that altered luciferase activity (including a few that increased activity) to test for any effects on cell number. An MTT assay was used to monitor compounds for inhibition of cell growth and cell toxicity. The compounds were tested once in a six-point dose-response assay starting at 10 nM and increasing to 3.3 μM. FaDu cells were plated in a 96-well plate for 24 hr before addition of the compounds. Each compound was added in each of six concentrations (10 nM, 30 nM, 100 nM, 330 nM, 1000 nM, and 3300 nM), and each concentration was tested in triplicate. In addition, DMSO was used as a control. After incubating for 24 hr, the cell number was measured using the MTT assay.

| Molecule | inhibition of highly cap-dependent translation (summary statement) (eIF4E) | LDH release % Increase VSMC [1] | luciferase expression under the control of the FGF 5′UTR (eIF4E; 1.0 μM, 48 h, FaDu UTR cells, normalized to DMSO (FIG. 8)) | inhibition of luciferase activity (FGF 5′UTR) (eIF4E; highest concentration tested) | inhibition of cell viability (FaDu cells) |
| --- | --- | --- | --- | --- | --- |
| COc1ccc(-n2c(-c3sc(Nc4ccc(Cl)cc4)nc3-c3ccccc3)nc3ccccc3c2=O)cc1 [Example 225, 2-[2-(4-Chloro-phenylamino)-4-phenyl-thiazol-5-yl]-3-(4-methoxyphenyl)-3H-quinazolin-4-one] | capable of inhibiting |  |  |  |  |
| CNc1nc(C)c(-c2nc3ccccc3c(=O)n2-c2ccc(Cl)cc2)s1 [Example 244, 2-(4-Methyl-2-methylamino-thiazol-5-yl)-3-(4-chloro-phenyl)-3H-quinazolin-4-one] |  | 68# % |  |  |  |
| Bis-[2-(4-Chloro-phenylamino)-4-benzayl-thiazole-5-yl]-methanone [Example 134] | capable of inhibiting |  | inhibited luciferase expression | > 60% | ~20% |
